# Results reported in US20170273961A1, “NOVEL IMINONITRILE DERIVATIVES” (CURADEV PHARMA, PVT. LTD., priority 2014, published 2017).
# Biological target: T1, IDO1 (Mus musculus, UniProt P28776)
# T1 construct: LPS-injected mice have been used as models to study IDO1 expression and activity; from tissue; host or cells: whole animal: LPS-injected C57BL/6 mice, with IDO1 induced in a variety of tissues
# Experiment: Reduction of LPS induced plasma kynurenine levels in C57BL/6 mice
# Format: in vivo
# Settings: LPS-injected (6 mg/kg i.p.) C57BL/6 mice; test compound given orally 20 h after LPS; plasma KYN by LC/MS/MS at 2 hr post dosing
# Description: Inflammatory mediators such as Lipopolysaccharides (LPS) and Interferon-gamma (IFNg) are well-established inducers of IDO1 expression. Intraperitoneal (i.p.) administration of bacterial lipopolysaccharide (LPS) induces peak IDO1 activity in a variety of tissues within one day after LPS administration resulting in the production and release of kynurenine into the bloodstream (Takikawa, O., et al. (1986) J. Biol. Chem. 261:3648-53; Yoshida, H., et al. (1998) Cell 94:739-750). LPS-injected mice have been used as models to study IDO1 expression and activity. Three—eight fed C57 BL/6 mice (age 7-8 weeks, weight: about 20-22 g) were injected intrapritoneally with bacterial lipopolysaccharide (LPS; 26:B6 Sigma) at a concentration of 6 mg/kg. Animals were then housed in normal condition for 20 hours at which time the test compounds were administered orally in formulation containing 30% polyethylene glycol 400 (PEG 400) and 20% propylene glycol (PG) in normal saline (Dosing volume 10 mL/kg). Blood was drawn through retro-orbital bleeds into a tube containing 100 mM EDTA for plasma collection at the following times: just prior to LPS treatment, just prior to test compound dosing (0 hr) and then at 2 hr, 4 hr, 6 hr, 8 hr, 24 hr and 48 hr post-test compound dosing. Plasma KYN and drug levels were determined by LC/MS/MS using an API4000 mass spectrometer (Applied Biosystems) coupled to a Shimadzu Prominence LC system fitted with a C18 column.
# The compounds of the invention decrease kynurenine levels. The compounds of the invention trigger a decrease of kynurenine levels at 2 hrs of at least 5%.
# T1 sequence (P28776 whole entry): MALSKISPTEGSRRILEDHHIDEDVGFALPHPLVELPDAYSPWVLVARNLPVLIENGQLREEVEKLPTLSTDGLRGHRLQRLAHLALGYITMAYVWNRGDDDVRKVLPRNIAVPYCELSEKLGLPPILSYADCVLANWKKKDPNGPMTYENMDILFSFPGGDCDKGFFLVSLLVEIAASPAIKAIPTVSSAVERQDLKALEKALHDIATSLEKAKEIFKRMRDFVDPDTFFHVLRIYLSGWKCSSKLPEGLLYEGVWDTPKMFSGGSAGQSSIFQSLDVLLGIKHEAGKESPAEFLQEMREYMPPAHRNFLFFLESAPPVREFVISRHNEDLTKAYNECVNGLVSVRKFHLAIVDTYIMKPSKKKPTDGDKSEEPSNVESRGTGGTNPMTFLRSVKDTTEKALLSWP
row,Structure (SMILES),percentage of decrease of kynurenine level at two hours [%]
1,"CNC(=O)c1cc(-c2nccc(/C(C#N)=N/c3cccc(Cl)c3)c2O)ccn1 [Compound 30, N-(3-Chlorophenyl)-3-hydroxy-2′-(methylcarbamoyl)-[2,4′-bipyridine]-4-carbimidoyl nitrile]",64
2,"CNC(=O)c1cc(-c2nccc(/C(C#N)=N/c3ccc(F)c(C(F)(F)F)c3)c2O)ccn1 [Compound 31, N-(4-Fluoro-3-(trifluoromethyl)phenyl)-3-hydroxy-2′-(methylcarbamoyl)-[2,4′-bipyridine]-4-carbimidoyl nitrile]",43
3,"CNC(=O)c1cc(-c2nccc(/C(C#N)=N/c3ccc(F)cc3)c2O)ccn1 [Compound 32, N-(4-Fluorophenyl)-3-hydroxy-2′-(methylcarbamoyl)-[2,4′-bipyridine]-4-carbimidoyl nitrile]",67
4,"N#C/C(=N\c1cccc(Cl)c1)c1ccncc1O [Compound 33, N-(3-Chlorophenyl)-3-hydroxyisonicotinimidoyl nitrile]",80
5,"N#C/C(=N\c1cccc(C(F)(F)F)c1)c1ccncc1O [Compound 34, 3-Hydroxy-N-(3-(trifluoromethyl)phenyl)isonicotinimidoyl nitrile]",67
6,"N#C/C(=N\c1cccc(F)c1)c1ccncc1O [Compound 35, N-(3-Fluorophenyl)-3-hydroxyisonIcotinimidoyl nitrile]",74
7,"N#C/C(=N\c1ccc(F)c(F)c1)c1ccncc1O [Compound 36, N-(3,4-Difluorophenyl)-3-hydroxyisonicotinimidoyl nitrile]",79
8,"CNC(=O)c1cc(-c2nccc(/C(C#N)=N/c3ccc(F)c(F)c3)c2O)ccn1 [Compound 37, N-(3,4-Difluorophenyl)-3-hydroxy-2′-(methylcarbamoyl)-[2,4′-bipyridine]-4-carbimidoyl nitrile]",68
9,"Cc1cc(-c2nccc(/C(C#N)=N/c3cccc(C(F)(F)F)c3)c2O)ccn1 [Compound 38, 3-Hydroxy-2′-methyl-N-(3-(trifluoromethyl)phenyl)-[2,4′-bipyridine]-4-carbimidoyl nitrile]",69
10,"Cc1cc(-c2nccc(/C(C#N)=N/c3ccc(F)c(C(F)(F)F)c3)c2O)ccn1 [Compound 39, N-(4-Fluoro-3-(trifluoromethyl)phenyl)-3-hydroxy-2′-methyl-[2,4′-bipyridine]-4-carbimidoyl nitrile]",67
11,"N#C/C(=N\c1ccc(F)c(C(F)(F)F)c1)c1ccnc(-c2ccncc2)c1O [Compound 40, N-(4-Fluoro-3-(trifluoromethyl)phenyl)-3-hydroxy-[2,4′-bipyridine]-4-carbimidoyl nitrile]",77
12,"N#C/C(=N\c1cccc(F)c1)c1ccnc(-c2ccncc2)c1O [Compound 41, N-(3-Fluorophenyl)-3-hydroxy-[2,4′-bipyridine]-4-carbimidoyl nitrile]",81
13,"N#C/C(=N\c1cccc(C(F)(F)F)c1)c1ccnc(-c2ccccc2)c1O [Compound 42, 3-Hydroxy-2-phenyl-N-(3-(trifluoromethyl)phenyl)isonicotinimidoyl nitrile]",32
14,"N#C/C(=N\c1ccc(F)cc1)c1ccnc(-c2ccnc(F)c2)c1O [Compound 43, 2′-Fluoro-N-(4-fluorophenyl)-3-hydroxy-[2,4′-bipyridine]-4-carbimidoyl nitrile]",69
15,"N#C/C(=N\c1ccc(F)c(Cl)c1)c1ccnc(-c2cccnc2)c1O [Compound 44, N-(3-Chloro-4-fluorophenyl)-3-hydroxy-[2,3′-bipyridine]-4-carbimidoyl nitrile]",77
